Laboratory results taken from paper PMC6033896, “Discovery of Mcl-1 inhibitors from integrated high throughput and virtual screening” (Scientific Reports, 2018).

How the values were obtained:
Bfl-1 = biological target: T1, Bfl-1 (Homo sapiens, UniProt Q16548); assay: FP-based competitive binding assay with FAM-Bid; conditions: Bfl-1
T1 construct: Bf l-1 (residues 1-151); His tag (pHis-TEV vector) (N, cleaved yes); made in house; host or cells: E. coli BL21 (DE3)
T1 sequence (Q16548 1-151): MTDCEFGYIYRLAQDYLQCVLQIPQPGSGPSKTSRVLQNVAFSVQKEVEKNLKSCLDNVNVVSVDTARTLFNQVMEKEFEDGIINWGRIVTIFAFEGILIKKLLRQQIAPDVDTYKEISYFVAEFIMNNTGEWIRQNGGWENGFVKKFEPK
Procedure: (§1) FP-based binding assays were developed and optimized to determine the binding affinities of inhibitors to the recombinant Mcl-1, Bcl-2, Bcl-xL, and Bfl-1, proteins. […] The fluorescent Bid probe was fixed at 2 nM for all assays, except for Bfl-1, where 1 nM was used. 5 μL of the tested compound in DMSO and 120 μL of protein/probe complex in the assay buffer were added to assay plates (Corning #3792), incubated at room temperature for 3 h, and the polarization values (mP) were measured at an excitation wavelength of 485 nm and an emission wavelength of 530 nm using the plate reader Synergy H1 Hybrid, BioTek. IC50 values were determined by nonlinear regression fitting of the competition curves (GraphPad Prism 6.0 Software). The Ki values were calculated as described previously.
(§2) 1. List of compounds purchased from vendors
(§3) Compound s 5, 6, 7, 8 and S3, S4, S5, S6 S7, S8, S9, S10, S17 were purchased from […]
(§4) Compound s 9, 10, 11 and S11, S12, S13 were purchased from I nterbioscreen […]
(§5) His-tagged proteins containing human Mcl-1 (residues 171–323), the isoform 2 construct of the human Bcl-2 [Bcl2-2 construct for protein production starts with the Bcl2 sequence of 1-34 a a, followed by the Bcl-xL seq uence of 35-50 aa, and ends with the Bcl-2 sequenc e of 92-202aa.], Bcl-xL (Human Bcl-xL protein, which has an internal deletion for the 45 -85 amino acid residues and a C -terminal truncation for the amino acid residues 212-233), and Bf l-1 (residues 1-151), were expres sed from the pHis -TEV vector (a modified pET vector) in E. coli BL21 (DE3) cells. Cells were grown at 37 °C in 2×YT containing antibiotics to an OD600 density of 1.5, 1 and 0.8 for Mcl-1, Bcl-xL and Bcl-2 respectively. Protein expression wa s induced by 0 .4 mM IPTG at 20 °C overnight for all proteins except for Bf l-1 which was e xpressed at 3 7 °C for four hours . Cells were lysed in 20 mM HEPES pH 7.5, 200 mM NaCl, 0.1% βME with Leupeptin/Aprotinin (Mcl-1), 25mM Tris pH 8.5, 200mM NaCl (Bcl-2), 50mM Tris pH 7.5, 200 mM NaCl (Bcl-xL) and 50 mM Tris pH 8, 500 mM NaCl, 0. 1% βME with Leupeptin/Aprotinin (Bf l-1). All

Mcl-1 protein [1] = biological target: T2, Mcl-1 protein (Homo sapiens, UniProt Q07820); assay: SPR-based solution competitive binding assay, immobilized biotin-labelled Bim BH3 peptide; conditions: Mcl-1 20 nM; competition with immobilized Bim BH3 peptide
T2 construct: human Mcl-1 (residues 171–323); His tag (pHis-TEV vector) (N, cleaved yes); made in house; host or cells: E. coli BL21 (DE3)
Procedure: The solution competitive SPR-based assay was performed on Biacore 2000 in a similar way as was already reported. Briefly, N terminal biotin-labelled Bim BH3 peptide (141–166 amino acids) was immobilized on streptavidin (SA) chip giving a density of 800 RU (Response Units). The pre-incubated Mcl-1 protein (20 nM) with tested small-molecule inhibitors for at least 30 min was injected over the surfaces of the chip using assay buffer HBS-P (GE, #BR100368). Response units were measured at 15 s in the dissociation phase, and IC50 values were determined by nonlinear least-squares analysis using GraphPad Prism 6.0 software.

Mcl-1 protein [2] = biological target: T2, Mcl-1 protein; assay: FP-based competitive binding assay with fluorescent labelled Bid BH3 peptide; conditions: competition with fluorescent Bid probe 2 nM, 20 nM Mcl-1 for purchased compounds, 10 nM for synthesized library
Procedure: as §1, §2, §3, §4
as §5, with “All […]” for “All”
proteins were purified from the soluble fraction using Ni-NTA resin (QIAGEN), following the manufacturer’s instructions. For purification of TEV-cleaved protein, the amino-terminal His tag was cleaved by incubation with TEV protease and the protein was further purified by anion exchange (Source Q) and gel filtration chromatography (Superdex 75, Amersham Biosciences) in 20mM HEPES pH 7.0, 50 mM NaCl (Mcl-1), […]
NaCl, 0.1% βME (Bcl-xL) and 25 mM Tris pH 7.5, 150 mM NaCl, 25% Glycerol, 0.1% βME ( Bf l-1). His-tagged Mcl-1 protein was used for TR-FRET assay and HSQC-NMR.
His-TEV cleaved Mcl-1, Bcl-2, Bcl-xL, and Bf l-1 were used in fluorescent polarization and surface plasmon resonance binding assays.
Mutant Mcl-1 protein wa s prepared by the QuikChange site -directed mutagenesi s method (Stratagene) , where Arg263 was mutated to Ala. The R263A expression pla smid was transformed into Rosetta2 DE3 cells and purified by the same method as the wildtype protein. Cultures were grown to an OD 600 of 1. 5 at 37 °C in Terrific Broth, induced with 0. 4 mM IPTG, and express ed overnight at 20 °C. The follow-up purification was performed the same way as was for Mcl-1 wild-type recombinant

Mcl-1/Noxa interaction = system: Mcl-1/Noxa interaction; set-up: method as in PubChem BioAssay AID 1417; conditions: Dose Response Confirmation for Mcl-1/Noxa Interaction Inhibitors; ref PubChem BioAssay AID 1417; cited from earlier work
[3] = system: Bax/Bak double knockout (DKO) MEFs; assay: MEF cell death, propidium iodide flow cytometry; assay type: cell-based, mouse; conditions: increasing concentrations, 15 h
Procedure: (§6) MEF cells, including wild-type, Bax/Bak double knockout, Bax−/− single knockout, and Bak−/− single knockout were tested and characterized (Supplementary Fig. S3). The cells were cultured in DMEM (Life Technologies), supplemented with 10% fetal bovine serum (FBS) (Thermo Scientific HyClone) and 1% Penicillin/streptomycin solution (Life Technologies). The retrovirally transduced lymphoma cells isolated from Eμ-myc transgenic mice were provided by Ricky W. Johnstone at the University of Melbourne, Melbourne, Australia and cultured as previously described[37],[65].
(§7) MEFs were seeded in 24-well plates at 0.5 × 10^5 cells/well, left to adhere for 5 hours and then treated for 15 hours with increasing concentrations of the compounds. The cells were harvested, washed with phosphate-buffered saline (PBS) and stained with 0.025 mg/ml propidium iodide (MP Biomedicals). The percentage of the propidium iodide positive population was determined by flow cytometry and calculated using WinList 3.0.

[4] = system: Bak−/− single knockout MEFs; assay: MEF cell death, propidium iodide flow cytometry; assay type: cell-based, mouse; conditions: increasing concentrations, 15 h
Procedure: as §6, §7

wild-type MEFs = assay: MEF cell death, propidium iodide flow cytometry; assay type: cell-based, mouse; conditions: increasing concentrations, 15 h
Procedure: as §6, §7

[5] = system: Bax−/− single knockout MEFs; assay: MEF cell death, propidium iodide flow cytometry; assay type: cell-based, mouse; conditions: increasing concentrations, 15 h
Procedure: as §6, §7

[6] = system: Eµ-myc lymphoma cells overexpressing Mcl-1; assay: Eµ-myc lymphoma cell viability, flow cytometry; assay type: cell-based, mice; conditions: increasing concentrations, 15 h
Procedure: as §6
(§8) The Mcl-1, Bcl-2, and Bcl-xL retroviral transduced lymphoma Eμ-myc cells were seeded in 12-well plates at 0.5 × 10^6 cells/well. […] The cells were harvested and stained with violet LIVE/DEAD Fixable Dead Cell Stain Kit (Invitrogen) according to manufacturer’s protocol. The percentage of fluorescent positive cells was determined by flow cytometry and calculated using WinList 3.0.

[7] = system: Eµ-myc lymphoma cells overexpressing Bcl-2; assay: Eµ-myc lymphoma cell viability, flow cytometry; assay type: cell-based, mice; conditions: increasing concentrations
Procedure: as §6, §8

[8] = system: Eµ-myc lymphoma cells overexpressing Bcl-xL; assay: Eµ-myc lymphoma cell viability, flow cytometry; assay type: cell-based, mice; conditions: increasing concentrations, 15 h
Procedure: as §6, §8

T2 sequence (Q07820 171-323): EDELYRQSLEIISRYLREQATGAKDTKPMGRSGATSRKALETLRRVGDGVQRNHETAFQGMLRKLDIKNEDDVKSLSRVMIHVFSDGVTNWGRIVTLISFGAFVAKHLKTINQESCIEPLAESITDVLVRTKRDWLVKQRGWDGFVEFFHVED

| SMILES | IC50 (Bfl-1) [µM] | IC50 (Mcl-1 protein [1]) [µM] | IC50 (Mcl-1 protein [2]) [µM] | IC50 (Mcl-1/Noxa interaction) [µM] | cell death in Bax/Bak DKO MEFs [3] | cell death in Bak−/− MEFs [4] | cell death in wild-type MEFs (wild-type MEFs) | cell death in Bax−/− MEFs [5] | killing of Eµ-myc cells overexpressing Mcl-1 [6] | effect on Eµ-myc cells overexpressing Bcl-2 [7] | effect on Eµ-myc cells overexpressing Bcl-xL [8] |
| --- | --- | --- | --- | --- | --- | --- | --- | --- | --- | --- | --- |
| CCOc1ccc(C(=O)Nc2cc(NC(=O)c3ccc(OCC)c(Cl)c3)cc(C(=O)O)c2)cc1Cl [Compound 3] | 2.5 ± 0.2 | 21.3 ± 5.4 | 9.6 ± 2.5 | 14.3 | – | – | – | – | – | – | – |
| Cc1ccc2nc(N3C(=O)C(O)=C(C(=O)c4cc5ccccc5o4)C3c3cccs3)sc2c1 (centres unmarked) [Compound 4] | – | 4.5 ± 0.3 | 2.4 ± 1.1 | 2.4 | – | – | – | – | – | – | – |
| Cc1c(-c2c(-c3ccc(F)o3)sc3ncnc(OC(Cc4ccccc4OCc4ccnn4CC(F)(F)F)C(=O)O)c23)ccc(OCCN2CCN(C)CC2)c1Cl (centres unmarked) [Compound S63845, reference compound] | – | – | – | – | not | not | induces cell death | not | selectively killing | sparing | sparing |
